Data as given in patent US20220160751A1, “METHODS OF TREATMENT OF DISEASES AND DISORDERS ASSOCIATED WITH INCREASED TET LEVEL, INCREASED H19 LEVEL, INCREASED LEVEL OF TGF SIGNALING, OR ANY COMBINATION THEREOF” (YALE UNIVERSITY, priority 2019, published 2022).

Assays:
[1] = system: TGFB1, TSP1 and TGFBR2 promoters; experiment: ChIP-qPCR and QMSP in LX-2 cells; assay type: cell-based, human; settings: 48 h, vs siCon
Description: The assays were carried out as previously described in (Zhou J et al., 2015, Nat Commun 6:10221; Zhong T et al., 2016, Oncogene 36:2345-2354) with minor modifications. Briefly, gDNA was extracted from LX-2 cells in 24-well plates using Quick-gDNA MicroPrep (Zymo Research Corporation, Irvine, Calif.; D3021). For bisulfite treatment using EZ DNA Methylation-Gold Kit (Zymo, D5006), 90-500 ng of gDNA was used per column and 20-40 μl of elution buffer was used to elute DNA from each column. qPCR was performed in a 15 μl reaction containing 5 μl of eluted DNA using iQSYBRGreen (Bio-Rad, Hercules, Calif.; 1708880) in a Bio-Rad iCycler. PCR was conducted by initial denaturation at 95° C. for 5 min, followed by 40 cycles of 30 sec at 95° C., 30 sec at 60° C., and 30 sec at 72° C. Two sets of PCR primers were designed: one for unmethylated and one for methylated DNA sequences. The PCR primers for methylated DNA were used at a final concentration of 0.6 μM in each PCR reaction. The relative levels of methylated versus unmethylated DNA sequences are presented.
These experiments were performed as previously described (Zhou J et al., 2015, Nat Commun 6:10221) with minor modifications. Briefly, experiments were performed in a 10-cm plate scale using Chromatin Prep Module Kit (Thermo, catalog number 26158) according to the manufacturer's instructions. Agarose beads were used to pre-bind overnight with antibodies against TET3 (Millipore Sigma, ABE290), H3K4me3 (Cell signaling, C42D8) and H3K27me3 (Cell signaling, C36B11). Preimmune IgG was used as a negative control. LX-2 cells were cross-linked with 1% formaldehyde at RT for 10 min and the reaction was stopped by 1× glycine. ChIPs were carried out overnight at 4° C. Primers (Table 1) for the specific promoter regions of TGFB1, TSP1, and TGFBR2 were used to amplify input and ChIP-purified DNA. The relative enrichments of the indicated DNA regions were calculated using the Percent Input Method according to the manufacturer's instructions and were normalized to % input. Data are presented after normalization against background IgG signals.

[2] = system: MED12, TGFBR2 and TSP1 promoters; experiment: ChIP-qPCR, methylation profiling and QMSP in leiomyoma cells; assay type: cell-based, human; settings: vs siCon
Description: gDNA was extracted from primary leiomyoma cells from one well of 24-well plates using Quick-gDNA MicroPrep (Zymo Research Corporation, Irvine, Calif.; D3021) according to the manufacturer's instructions. For bisulfite treatment, 200 ng of gDNA was used for each column using EZ DNA Methylation-Gold Kit (Zymo, D5006). 100 μl of elution buffer was used to elute gDNA from each column. Real-time quantitative PCR was performed in a 15 μl reaction containing 5 μl of the eluted gDNA using iQSYBRGreen (Bio-Rad, Hercules, Calif.; 1708880) in a Bio-Rad iCycler. Two sets of PCR primers were designed: one for unmethylated and one for methylated DNA sequences. The PCR primers for methylated DNA were used at a final concentration of 0.6 μM in each PCR reaction. PCR was performed by initial denaturation at 95° C. for 5 min, followed by 40 cycles of 30 sec at 95° C., 30 sec at 60° C., and 30 sec at 72° C. Specificity was verified by melting curve analysis and agarose gel electrophoresis. The threshold cycle (Ct) values of each sample were used in the post-PCR data analysis. The relative levels of methylated versus unmethylated DNA sequences are presented.
These experiments were performed as previously described (Zhou J et al., 2015, Nat Commun 6:10221) with minor modifications. Briefly, experiments were performed in a 10-cm plate scale using the Pierce Agarose ChIP Kit (Thermo Scientific, 26156) according to the manufacturer's instructions with minor modifications. Agarose beads were used to pre-bind overnight with antibodies against TET3 (Millipore Sigma, ABE290), H3K4me3 (Cell signaling, C42D8) and H3K27me3 (Cell signaling, C36B11). Preimmune IgG was used as a negative control. Cells were cross-linked with 1% formaldehyde at room temperature for 10 min, and the reaction was stopped by 1× glycine. ChIPs were carried out overnight at 4° C. Primers for the specific promoter regions of MED12, TGFBR2, and TSP1 (FIG. 16A) were used to amplify input and ChIP-purified DNA. The relative enrichments of the indicated DNA regions were calculated using the Percent Input Method according to the manufacturer's instructions and were normalized to % input. Data are presented after normalization against background IgG signals.

siTET3: TET3-specific siRNA (human), Ambion 4392420/s47239 (sense CAGCAACUCCUAGAACUGATT; antisense UCAGUUCUAGGAGUUGCUGGA; chemistry not given here)
H3K4me3 association with promoters [1]: significantly decreased H3K4me3 | H3K27me3 association with promoters [1]: increased H3K27me3 | binding of TET3 to TGFB1, TSP1 and TGFBR2 promoters (ChIP-qPCR) [1]: significantly reduced | methylation in the CTRRs of TGFB1, TSP1 and TGFBR2 (QMSP) [1]: increase in methylation in the CTRRs | ratios of H3K4me3/H3K27me3 [1]: decreased significantly | binding of TET3 to MED12, TGFBR2 and TSP1 promoters (ChIP-qPCR) ([2]; UtLM cells, 48 h): significantly reduced | H3K4me3 association with promoters ([2]; UtLM cells): significantly decreased H3K4me3 | H3K27me3 association with promoters ([2]; UtLM cells): increased H3K27me3 | decrease of the ratios of H3K4me3/H3K27me3 ([2]; UtLM cells): 5-8 fold | methylation of CpGs within the CTRRs of MED12, TGFBR2 and TSP1 promoters ([2]; ht-UtLM genome-wide profiling, confirmed in UtLM by QMSP, 48 h): increased methylation of the CpGs within the CTRRs
